Article PMC11245557, “Differential potassium channel inhibitory activities of a novel thermostable degradation peptide BmKcug1a-P1 from scorpion medicinal material and its N-terminal truncated/restored peptides” (Scientific Reports, 2024)
Bridge positions count the residues as written; N and C are the ends. Peptide text beside a SMILES is read from it.

Columns and labels:
Format in all cases: cell-based
hKv1.3 channel = molecular target: T1, hKv1.3 channel (Homo sapiens, UniProt P22001); experiment: Whole-cell patch clamp, hKv1.3 currents in transfected HEK293T cells; conditions: mean ± SE; for IC50: dose-response fitted with modified Hill equation; for IC50 / inhibition of hKv1.3 channel current: SEM
T1 construct: expressed in transfected cells; host or cells: HEK293T
Text: (§1) The cDNA fragments encoding potassium channels were provided by others as previously described. The cDNA encoding hKv1.1 channel and hKv1.3 channel were cloned into the pCDNA3.1(+) vector. The cDNA encoding hKv1.2 channel, hKv1.6 channel and hKv3.2 channel were inserted into the pIRES2-EGFP vector.
(§2) HEK293T cell lines were obtained from the BeNa Culture Collection (Xinyang, China) and maintained in DMEM (Dulbecco’s Modified Eagle Medium, Gibco, Pittsburgh, PA, USA) supplemented with 10% fetal bovine serum (FBS, Gibco) and 1% penicillin/streptomycin (Gibco). Cells were passaged using Pancreatin (Gibco). For transfection experiments, HEK293T cells were seeded in appropriate culture vessels and allowed to reach 70–80% confluency. The expression vectors of pEGFP-N1 and potassium channels were co-transfected into HEK293T cells using ExFect Transfection Reagent (Vazyme, Nanjing, China) following its manufacturer’s instructions. Briefly, plasmid DNA and transfection reagent were mixed in serum-free medium, incubated for 15–30 min at room temperature to allow complex formation, and then added to the cells. After 24–48 h transfection, the single positive cells were selected based on the presence of GFP fluorescence to assess the potassium channel inhibiting activities of the peptides using whole cell patch clamp technique.
(§3) An EPC-10 patch-clamp amplifier which was controlled by PatchMaster software (HEKA Elektronik, Lambrecht, Germany) was applied to measure and record the potassium currents for whole-cell. The MPS-2 multichannel microperfusion system (INBIO Inc., Wuhan, China) was applied to exchange the external bath solution with different concentration of peptides. According to the protocol as previously described, the internal patch pipette solution and bath solution were prepared. The peptides were dissolved in Bath solution with 0.01% BSA (Gibco, Pittsburgh, PA, USA) to different concentrations. The potassium currents of hKv1.1, hKv1.2, hKv1.3, hKv1.6 and hKv3.2 channel were generated following the respective protocols as previously described. The results of the electrophysiological experiment are presented as the mean ± SE, and over three cells for each peptide in any concentration were examined ([…]).
(§4) For electrophysiological experiments, we used the ClampFit (Molecular Devices, Sunnyvale, CA, USA) and SigmaPlot software (IBM SPSS, Chicago, IL, USA) to analyze the recorded data. The dose–response relationship between channel current and peptide inhibition is fitted by the modified Hill equation: Ipeptide/Icontrol = 1/{1 + [peptide]/IC50}, in which Ipeptide represent the potassium current under the inhibition of peptide, Icontrol represent the peak current, IC50 is the half-maximum inhibition concentration, and [peptide] represents the concentration of the peptide. The half inhibitory concentration (IC50) was the parameter to be fitted.

hKv1.1 channel = molecular target: T2, hKv1.1 channel (Homo sapiens, UniProt Q09470); experiment: Whole-cell patch clamp, hKv1.1 currents in transfected HEK293T cells; conditions: 1 μM peptide, mean ± SE, n ≥ 3, SEM
T2 construct: expressed in transfected cells; host or cells: HEK293T
Text: as §1
as §2, with “Briefly, plasmid DNA and transfection reagent were mixed in serum-free medium, incubated for 15–30 min at room temperature to allow complex formation, and then added to the cells.” left out, “technique. […]” for “technique.”
(§5) For electrophysiological experiments, we used the ClampFit (Molecular Devices, Sunnyvale, CA, USA) and SigmaPlot software (IBM SPSS, Chicago, IL, USA) to analyze the recorded data. […]

hKv1.2 channel = molecular target: T3, hKv1.2 channel (Homo sapiens, UniProt P16389); experiment: Whole-cell patch clamp, hKv1.2 currents in transfected HEK293T cells; conditions: mean ± SE
T3 construct: expressed in transfected cells; host or cells: HEK293T
Text: as §1, §2, §3, §4

hKv1.6 channel = molecular target: T4, hKv1.6 channel (Homo sapiens, UniProt P17658); experiment: Whole-cell patch clamp, hKv1.6 currents in transfected HEK293T cells; conditions: 1 μM peptide, mean ± SE, n ≥ 3, SEM
T4 construct: expressed in transfected cells; host or cells: HEK293T
Text: as §1
as §2, with “Briefly, plasmid DNA and transfection reagent were mixed in serum-free medium, incubated for 15–30 min at room temperature to allow complex formation, and then added to the cells.” left out, “technique. […]” for “technique.”
as §5

hKv3.2 channel = molecular target: T5, hKv3.2 channel (Homo sapiens, UniProt Q96PR1); experiment: Whole-cell patch clamp, hKv3.2 currents in transfected HEK293T cells; conditions: 1 μM peptide, mean ± SE, n ≥ 3, SEM
T5 construct: expressed in transfected cells; host or cells: HEK293T
T5 sequence (Q96PR1 1-638): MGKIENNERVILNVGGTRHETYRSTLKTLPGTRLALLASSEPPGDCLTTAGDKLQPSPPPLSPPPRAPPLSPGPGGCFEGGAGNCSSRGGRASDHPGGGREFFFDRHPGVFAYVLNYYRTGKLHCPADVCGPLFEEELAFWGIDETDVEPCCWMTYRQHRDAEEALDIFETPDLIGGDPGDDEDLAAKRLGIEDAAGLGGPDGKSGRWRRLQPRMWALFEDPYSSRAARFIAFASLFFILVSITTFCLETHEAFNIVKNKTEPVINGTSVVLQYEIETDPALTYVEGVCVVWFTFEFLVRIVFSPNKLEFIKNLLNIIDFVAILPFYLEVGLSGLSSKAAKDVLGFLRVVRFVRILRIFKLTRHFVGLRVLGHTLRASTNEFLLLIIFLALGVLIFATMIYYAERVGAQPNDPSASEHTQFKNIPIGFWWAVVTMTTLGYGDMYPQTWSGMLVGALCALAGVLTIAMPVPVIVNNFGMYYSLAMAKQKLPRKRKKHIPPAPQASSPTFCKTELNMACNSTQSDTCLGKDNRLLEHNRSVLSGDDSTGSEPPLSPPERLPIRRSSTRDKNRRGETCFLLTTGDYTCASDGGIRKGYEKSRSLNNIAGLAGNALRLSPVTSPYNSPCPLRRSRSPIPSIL
Text: as §1
as §2, with “Briefly, plasmid DNA and transfection reagent were mixed in serum-free medium, incubated for 15–30 min at room temperature to allow complex formation, and then added to the cells.” left out, “technique. […]” for “technique.”
as §5

[1] = 1 μM peptide, HEK293T, n ≥ 3, SEM

T1 sequence (P22001 whole entry): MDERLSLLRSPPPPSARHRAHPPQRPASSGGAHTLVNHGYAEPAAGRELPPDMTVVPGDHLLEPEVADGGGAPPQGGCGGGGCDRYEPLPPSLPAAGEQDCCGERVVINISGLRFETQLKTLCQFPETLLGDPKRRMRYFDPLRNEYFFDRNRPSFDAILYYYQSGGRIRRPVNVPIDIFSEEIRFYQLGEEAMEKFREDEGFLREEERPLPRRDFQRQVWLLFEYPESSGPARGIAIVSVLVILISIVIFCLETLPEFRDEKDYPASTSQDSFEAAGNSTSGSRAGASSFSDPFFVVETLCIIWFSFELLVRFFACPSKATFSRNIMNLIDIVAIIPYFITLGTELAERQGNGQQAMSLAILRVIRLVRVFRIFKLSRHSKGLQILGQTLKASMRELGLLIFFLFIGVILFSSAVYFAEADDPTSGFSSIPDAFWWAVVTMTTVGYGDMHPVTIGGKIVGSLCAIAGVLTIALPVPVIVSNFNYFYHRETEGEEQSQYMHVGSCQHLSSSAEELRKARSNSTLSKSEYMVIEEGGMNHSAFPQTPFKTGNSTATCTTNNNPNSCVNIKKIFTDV
T3 sequence (P16389 whole entry): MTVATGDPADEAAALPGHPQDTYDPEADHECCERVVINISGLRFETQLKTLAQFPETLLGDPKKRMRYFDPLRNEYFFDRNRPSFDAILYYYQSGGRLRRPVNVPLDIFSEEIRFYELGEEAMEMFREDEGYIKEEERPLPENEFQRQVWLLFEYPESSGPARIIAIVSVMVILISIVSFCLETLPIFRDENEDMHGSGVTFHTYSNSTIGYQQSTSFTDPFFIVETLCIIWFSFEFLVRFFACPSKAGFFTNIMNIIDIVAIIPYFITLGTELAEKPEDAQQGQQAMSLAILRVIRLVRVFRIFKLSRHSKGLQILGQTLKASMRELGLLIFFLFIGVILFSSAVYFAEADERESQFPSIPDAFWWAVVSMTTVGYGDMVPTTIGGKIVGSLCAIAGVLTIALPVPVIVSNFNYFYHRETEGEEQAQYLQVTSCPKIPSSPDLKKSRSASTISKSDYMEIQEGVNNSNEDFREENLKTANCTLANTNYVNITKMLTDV
T4 sequence (P17658 whole entry): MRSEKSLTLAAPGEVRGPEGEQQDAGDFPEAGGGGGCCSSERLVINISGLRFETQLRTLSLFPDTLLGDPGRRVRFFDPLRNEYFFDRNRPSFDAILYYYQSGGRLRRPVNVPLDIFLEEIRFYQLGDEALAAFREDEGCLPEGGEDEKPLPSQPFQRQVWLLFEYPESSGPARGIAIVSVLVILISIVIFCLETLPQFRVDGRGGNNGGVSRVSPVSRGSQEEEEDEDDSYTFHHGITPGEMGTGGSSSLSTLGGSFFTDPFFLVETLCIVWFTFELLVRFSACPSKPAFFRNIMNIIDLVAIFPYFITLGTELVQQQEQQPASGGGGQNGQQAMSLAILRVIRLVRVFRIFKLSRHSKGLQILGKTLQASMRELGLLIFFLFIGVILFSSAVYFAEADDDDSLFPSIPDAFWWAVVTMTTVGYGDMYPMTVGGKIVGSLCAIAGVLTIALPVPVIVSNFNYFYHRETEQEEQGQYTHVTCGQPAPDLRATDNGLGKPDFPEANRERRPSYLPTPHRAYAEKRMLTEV
T2 sequence (Q09470 whole entry): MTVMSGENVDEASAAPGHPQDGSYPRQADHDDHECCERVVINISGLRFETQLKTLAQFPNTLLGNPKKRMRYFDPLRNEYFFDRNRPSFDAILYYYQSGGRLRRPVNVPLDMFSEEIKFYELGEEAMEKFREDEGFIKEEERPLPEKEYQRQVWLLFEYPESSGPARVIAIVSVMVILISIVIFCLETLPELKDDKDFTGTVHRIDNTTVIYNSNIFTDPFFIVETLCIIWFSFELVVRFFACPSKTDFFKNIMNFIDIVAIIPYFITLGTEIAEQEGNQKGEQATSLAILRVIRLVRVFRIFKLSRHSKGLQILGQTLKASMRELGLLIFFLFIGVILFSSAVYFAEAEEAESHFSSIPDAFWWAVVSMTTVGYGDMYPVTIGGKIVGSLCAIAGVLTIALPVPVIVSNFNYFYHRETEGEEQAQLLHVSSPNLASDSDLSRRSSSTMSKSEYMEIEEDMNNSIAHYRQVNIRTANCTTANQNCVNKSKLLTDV

SMILES | IC50 (hKv1.3 channel; HEK293T) | inhibition of potassium currents mediated by hKv1.1 (hKv1.1 channel) | inhibition of hKv1.2 channel current (hKv1.2 channel; 200 nM peptide, SEM) | inhibition of potassium currents mediated by hKv1.2 (hKv1.2 channel; [1]) | inhibition of hKv1.2 channel current (hKv1.2 channel; 5 μM peptide, SEM) | inhibition of hKv1.2 channel current (hKv1.2 channel; 25 μM peptide, SEM) | IC50 (hKv1.2 channel; HEK293T, dose-response fitted with modified Hill equation, SEM) | inhibition of hKv1.3 channel current (hKv1.3 channel; 40 nM peptide) | inhibition of hKv1.3 channel current (hKv1.3 channel; 200 nM peptide) | inhibition of potassium currents mediated by hKv1.3 (hKv1.3 channel; [1]) | inhibition of hKv1.3 channel current (hKv1.3 channel; 5 μM peptide) | inhibition of hKv1.3 channel current (hKv1.3 channel; 25 μM peptide) | inhibition of potassium currents mediated by hKv1.6 (hKv1.6 channel) | inhibition of potassium currents mediated by hKv3.2 (hKv3.2 channel)
CSCC[C@@H]1NC(=O)[C@@H]2CSSC[C@H](NC(=O)[C@H](CO)NC(=O)[C@@H](NC(=O)[C@@H](N)CC(N)=O)C(C)C)C(=O)N[C@@H](CO)C(=O)N[C@@H](C)C(=O)N[C@@H](CO)C(=O)N[C@@H](CO)C(=O)N[C@@H](CCC(N)=O)C(=O)N[C@H]3CSSC[C@H](NC(=O)[C@H](CCCCN)NC(=O)[C@H](CO)NC(=O)[C@H](CC(N)=O)NC1=O)C(=O)N[C@@H](CCCNC(=N)N)C(=O)N[C@H](C(=O)N[C@@H](Cc1ccc(O)cc1)C(=O)N[C@@H](CO)C(=O)O)CSSC[C@H](NC(=O)[C@H](C(C)C)NC(=O)[C@@H]1CCCN1C(=O)[C@H](Cc1c[nH]c4ccccc14)NC3=O)C(=O)N[C@@H](CCC(=O)O)C(=O)N[C@@H](CCCCN)C(=O)N[C@@H](CC(C)C)C(=O)N[C@@H](Cc1ccccc1)C(=O)NCC(=O)N[C@@H]([C@@H](C)O)C(=O)N[C@@H](Cc1ccc(O)cc1)C(=O)N[C@@H](CCCNC(=N)N)C(=O)NCC(=O)N[C@@H](CCCCN)C(=O)N2 [BmKcug1a-P1-D2] (H-NVSCSASSQCWPVCEKLFGTYRGKCMNSKCRCYS-OH; disulfide 4-25, 10-30, 14-32) | 1660 ± 180 nM | – | – | – | – | – | – | – | – | – | – | – | – | –
CSCC[C@@H]1NC(=O)[C@@H]2CSSC[C@H](NC(=O)[C@@H](N)CO)C(=O)N[C@@H](CO)C(=O)N[C@@H](C)C(=O)N[C@@H](CO)C(=O)N[C@@H](CO)C(=O)N[C@@H](CCC(N)=O)C(=O)N[C@H]3CSSC[C@H](NC(=O)[C@H](CCCCN)NC(=O)[C@H](CO)NC(=O)[C@H](CC(N)=O)NC1=O)C(=O)N[C@@H](CCCNC(=N)N)C(=O)N[C@H](C(=O)N[C@@H](Cc1ccc(O)cc1)C(=O)N[C@@H](CO)C(=O)O)CSSC[C@H](NC(=O)[C@H](C(C)C)NC(=O)[C@@H]1CCCN1C(=O)[C@H](Cc1c[nH]c4ccccc14)NC3=O)C(=O)N[C@@H](CCC(=O)O)C(=O)N[C@@H](CCCCN)C(=O)N[C@@H](CC(C)C)C(=O)N[C@@H](Cc1ccccc1)C(=O)NCC(=O)N[C@@H]([C@@H](C)O)C(=O)N[C@@H](Cc1ccc(O)cc1)C(=O)N[C@@H](CCCNC(=N)N)C(=O)NCC(=O)N[C@@H](CCCCN)C(=O)N2 [BmKcug1a-P1-D4] (H-SCSASSQCWPVCEKLFGTYRGKCMNSKCRCYS-OH; disulfide 2-23, 8-28, 12-30 (inferred); N-terminus and C-terminus assumed) | 2210 ± 280 nM | – | – | – | – | – | – | – | – | – | – | – | – | –
CSCC[C@@H]1NC(=O)[C@@H]2CSSC[C@H](NC(=O)[C@H](CO)NC(=O)[C@@H](NC(=O)[C@H](CC(N)=O)NC(=O)[C@@H](NC(=O)[C@@H](N)Cc3ccccc3)[C@@H](C)O)C(C)C)C(=O)N[C@@H](CO)C(=O)N[C@@H](C)C(=O)N[C@@H](CO)C(=O)N[C@@H](CO)C(=O)N[C@@H](CCC(N)=O)C(=O)N[C@H]3CSSC[C@H](NC(=O)[C@H](CCCCN)NC(=O)[C@H](CO)NC(=O)[C@H](CC(N)=O)NC1=O)C(=O)N[C@@H](CCCNC(=N)N)C(=O)N[C@H](C(=O)N[C@@H](Cc1ccc(O)cc1)C(=O)N[C@@H](CO)C(=O)O)CSSC[C@H](NC(=O)[C@H](C(C)C)NC(=O)[C@@H]1CCCN1C(=O)[C@H](Cc1c[nH]c4ccccc14)NC3=O)C(=O)N[C@@H](CCC(=O)O)C(=O)N[C@@H](CCCCN)C(=O)N[C@@H](CC(C)C)C(=O)N[C@@H](Cc1ccccc1)C(=O)NCC(=O)N[C@@H]([C@@H](C)O)C(=O)N[C@@H](Cc1ccc(O)cc1)C(=O)N[C@@H](CCCNC(=N)N)C(=O)NCC(=O)N[C@@H](CCCCN)C(=O)N2 [BmKcug1a-P1] (H-FTNVSCSASSQCWPVCEKLFGTYRGKCMNSKCRCYS-OH; disulfide 6-27, 12-32, 16-34) | 1540 ± 280 nM | 1.9 ± 0.3% | 12.6 ± 3.3% | 37.7 ± 7.4% | 64.1 ± 4.5% | 83.9 ± 2.2% | 2120 ± 270 nM | 7.0 ± 0.5% | 18.3 ± 2.1% | 47.3 ± 3.5% | 65.2 ± 2.3% | 82.0 ± 0.6% | 3.8 ± 1.6% | 6.5 ± 0.9%
